Broadly, the IC50 is the midpoint of a concentration-inhibition curve.

Drawing on US20260306642A1, “STAT DEGRADERS AND USES THEREOF” (Recludix Pharma, Inc., priority 2023, published 2026), this text covers IC50 for 6 molecules.

Assay [1] has as its target T1, pSTAT6 (Homo sapiens, UniProt P42226).
T1 sequence (P42226 1-847): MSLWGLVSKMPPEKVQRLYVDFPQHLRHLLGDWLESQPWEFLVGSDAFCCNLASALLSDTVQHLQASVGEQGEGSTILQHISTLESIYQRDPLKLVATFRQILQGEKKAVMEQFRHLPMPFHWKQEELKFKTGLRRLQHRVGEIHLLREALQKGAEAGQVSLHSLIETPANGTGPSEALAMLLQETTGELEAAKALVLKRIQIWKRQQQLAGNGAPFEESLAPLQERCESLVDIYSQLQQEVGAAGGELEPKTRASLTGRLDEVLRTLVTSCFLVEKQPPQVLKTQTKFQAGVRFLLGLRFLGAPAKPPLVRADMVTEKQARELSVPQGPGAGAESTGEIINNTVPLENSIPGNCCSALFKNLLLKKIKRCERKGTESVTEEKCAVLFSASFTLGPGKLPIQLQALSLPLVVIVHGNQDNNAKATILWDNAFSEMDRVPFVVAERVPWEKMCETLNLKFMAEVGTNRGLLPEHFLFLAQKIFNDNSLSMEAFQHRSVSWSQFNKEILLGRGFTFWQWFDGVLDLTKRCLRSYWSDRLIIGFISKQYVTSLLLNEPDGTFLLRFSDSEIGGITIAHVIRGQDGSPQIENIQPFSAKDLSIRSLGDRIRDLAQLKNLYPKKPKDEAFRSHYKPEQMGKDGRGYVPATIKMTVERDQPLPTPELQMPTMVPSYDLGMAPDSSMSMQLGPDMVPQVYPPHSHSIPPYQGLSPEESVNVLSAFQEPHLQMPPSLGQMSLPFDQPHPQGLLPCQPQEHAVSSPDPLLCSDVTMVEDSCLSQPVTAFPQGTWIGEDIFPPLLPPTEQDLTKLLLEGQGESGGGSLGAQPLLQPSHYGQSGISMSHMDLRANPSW
The assay is described as follows: MSD-pSTAT-PBMC Assay (pSTAT6, IL-4 stimulated). To be noted: compound 3 hrs, then 1 ng/mL IL-4 10 min, pY641-STAT6, read-out: pSTAT6 IC50. The format is cell-based. An excerpt: Cryopreserved Peripheral Blood Mononuclear Cells (PBMC) are from AllCells. Recombinant Human IL-4 and IL-6 are from Peprotech. Mouse monoclonal anti-STAT3 antibody, rabbit monoclonal anti-pY705-STAT3 antibody, rabbit monoclonal Anti-pY641-STAT6 antibody, and lysis buffer are from Cell Signaling Technology (CST). Mouse monoclonal anti-STAT6 antibody is from BioLegend. Assay plates, blocker, and anti-rabbit secondary antibody are from Meso Scale Discovery (MSD).
Cryopreserved PBMCs were thawed out and allowed to recover overnight in IMDM+10% heat-inactivated FBS prior to plating 50,000 (STAT3) or 25,000 (STAT6) cells per well in 96-well U-bottom tissue culture plates. Cells were treated with compound for 3 hrs, then stimulated with 10 ng/mL IL-6 (STAT3) or 1 ng/mL IL-4 (STAT6) for 10 min. Cells were then spun down and washed with ice-cold PBS prior to lysing the cell pellet with 1× lysis buffer (CST) with 1× HALT protease and phosphatase inhibitor cocktail (Thermo). Lysates were transferred to and incubated overnight at 4° C. with shaking in QuickPlex 96-well high bind assay plates (MSD) pre-coated overnight with 30 μL per well of […] mouse monoclonal anti-STAT3 antibody (STAT3) or 2 μg/mL mouse monoclonal anti-STAT6 antibody (STAT6) in 1× PBS, and pre-blocked for 1 hour with 3% Blocker-A (MSD). Captured protein in the assay plates were then washed and probed with 25 μL per well of […] rabbit monoclonal anti-pY705-STAT3 antibody (STAT3) or […] rabbit monoclonal Anti-pY641-STAT6 antibody (STAT6) in 1% Blocker-A for 1 hour at room temperature with shaking, then washed and probed with 25 ul per well of 1 ug/ml Sulfo-TAG Labeled Goat Anti-Rabbit Antibody (MSD) in 1% Blocker-A for 1 hour at room temperature with shaking. Assay plates were then washed and 150 μL of 1× Read Buffer-T (MSD) was added to each well prior to reading on an SQ120 MSD Plate Reader. Assay signal from each sample was subtracted by the signal from unstimulated control wells and normalized to DMSO control wells. IC50 values were calculated using Graph Pad Prism Dose-Response Nonlinear Regression with variable slope. For both pSTAT3 and pSTAT6 A=≤100 nM; B=>100-1000 nM; C=>1000-3000 nM; and D=>3 μM.

Assay [2] concerns the target T2, STAT6 (Homo sapiens, UniProt P42226).
T2 construct: Recombinant STAT6 protein (STAT6(W123-T658))
T2 sequence (P42226 123-658): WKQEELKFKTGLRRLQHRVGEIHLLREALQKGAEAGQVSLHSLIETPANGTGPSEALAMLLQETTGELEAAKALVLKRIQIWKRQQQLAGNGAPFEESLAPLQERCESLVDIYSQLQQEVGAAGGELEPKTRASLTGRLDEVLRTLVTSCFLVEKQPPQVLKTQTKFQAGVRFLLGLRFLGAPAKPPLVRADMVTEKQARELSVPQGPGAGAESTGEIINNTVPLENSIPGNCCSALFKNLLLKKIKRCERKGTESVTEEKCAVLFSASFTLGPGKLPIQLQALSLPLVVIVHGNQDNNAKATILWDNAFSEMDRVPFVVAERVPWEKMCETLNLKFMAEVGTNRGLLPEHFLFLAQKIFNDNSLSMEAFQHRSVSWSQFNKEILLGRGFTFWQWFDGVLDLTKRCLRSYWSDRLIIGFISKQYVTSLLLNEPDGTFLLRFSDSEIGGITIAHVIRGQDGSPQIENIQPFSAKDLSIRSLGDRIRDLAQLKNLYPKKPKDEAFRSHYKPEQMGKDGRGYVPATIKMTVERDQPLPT
The experiment in a line: STAT6 Fluorescence Polarization (FP) Assay. Format: binding. Here is the method: An FP assay was developed to determine IC50 values for test substances. Recombinant STAT6 protein (STAT6(W123-T658)) at 250 nM was combined with a fluorescently labeled, phosphotyrosine peptide probe (5-FAM-ApYKPFQDLI-NH2) at 2 nM in FP buffer (10 mM HEPES pH 7.4, 50 mM NaCl, 1 mM EDTA, 0.05% Tween 20, 2 mM DTT). 50 μL of STAT6-probe mixture was added to serial diluted compounds in black, 96-well plates (Greiner BioOne 655076) to a final concentration of 1% DMSO. Reaction components were mixed, and FP was measured after 45-minute incubation at room temperature using a Tecan Spark multimode plate reader. FP signal (mP) was plotted against the log concentration of the test substances and IC50 values were calculated by nonlinear regression analysis using GraphPad Prism software. For STAT6 FP assay, A=≤300 nM; B=>300-3000 nM; C=>3-30 μM; and D=>30 μM.
In general terms: Polarisation of emitted light reports the rotation of a fluorescent probe.

For assay [3], the target named is T3, STAT3 (Homo sapiens, UniProt P40763).
T3 construct: Recombinant STAT3 protein (STAT3(G127-I722))
T3 sequence (P40763 127-722): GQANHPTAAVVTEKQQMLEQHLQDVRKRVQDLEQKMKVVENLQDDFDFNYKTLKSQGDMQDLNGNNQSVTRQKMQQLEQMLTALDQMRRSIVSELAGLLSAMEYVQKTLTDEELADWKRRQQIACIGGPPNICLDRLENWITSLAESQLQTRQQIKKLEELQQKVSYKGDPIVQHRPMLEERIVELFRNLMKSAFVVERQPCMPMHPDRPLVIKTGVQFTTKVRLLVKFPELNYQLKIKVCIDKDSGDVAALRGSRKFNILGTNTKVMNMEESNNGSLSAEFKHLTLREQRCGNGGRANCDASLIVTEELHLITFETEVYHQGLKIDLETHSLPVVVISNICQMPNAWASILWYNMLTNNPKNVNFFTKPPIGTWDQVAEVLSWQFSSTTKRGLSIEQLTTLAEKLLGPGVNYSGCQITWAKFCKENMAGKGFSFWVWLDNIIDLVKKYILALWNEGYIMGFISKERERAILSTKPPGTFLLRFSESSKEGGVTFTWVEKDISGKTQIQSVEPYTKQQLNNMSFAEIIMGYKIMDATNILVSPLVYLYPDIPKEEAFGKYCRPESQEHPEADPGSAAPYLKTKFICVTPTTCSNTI
The experiment in a line: STAT3 Fluorescence Polarization (FP) Assay. The format is binding. As to the method: An FP assay was developed to determine IC50 values for test substances.
Recombinant STAT3 protein (STAT3(G127-I722)) at 25 nM was combined with a fluorescently labeled, phosphotyrosine peptide probe (5-FAM-GpYLPQTV-NH2) at 2 nM in FP buffer (10 mM HEPES pH 7.4, 50 mM NaCl, 1 mM EDTA, 0.05% Tween 20, 2 mM DTT). 50 μL of STAT3-probe mixture was added to serial diluted compounds in black, 96-well plates (Greiner BioOne 655076) to a final concentration of 1% DMSO. Reaction components were mixed, and FP was measured after 45-minute incubation at room temperature using a Tecan Spark multimode plate reader. FP signal (mP) was plotted against the log concentration of the test substances and IC50 values were calculated by nonlinear regression analysis using GraphPad Prism software. For STAT3 FP assay, A=≤100 nM; B=>100-1000 nM; C=>1-10 μM; and D=>10 μM.

The structures appear in SMILES notation. Bounds are passed on as bounds.

`N#C[C@@H]1CN(C(=O)[C@@H]2CC[C@@H]3CCCC[C@H](NC(=O)c4cc5cc(C(F)(F)P(=O)(O)O)ccc5s4)C(=O)N32)C[C@H]1c1cccc(OCCCCOc2ccc(C3CCC(=O)NC3=O)cc2)c1` (mixture of isomers) [Compound 3, trans-((2-(((3S,6S,10aS)-3-(3-cyano-4-(3-(4-(4-(2,6-dioxopiperidin-3-yl)phenoxy)butoxy)phenyl)pyrrolidine-1-carbonyl)-5-oxodecahydropyrrolo[1,2-a]azocin-6-yl)carbamoyl)benzo[b]thiophen-5-yl)difluoromethyl)phosphonic acid]: the IC50 was 1000 to 3000 nM in assay [1], below 300 nM in assay [2] and 100 to 1000 nM in assay [3].

Consider `O=C1CCC(N2Cc3c(C#CCCCCCCn4ccc([C@@H]5CN(C(=O)[C@@H]6CC[C@@H]7CCCC[C@H](NC(=O)c8cc9cc(C(F)(F)P(=O)(O)O)ccc9s8)C(=O)N76)C6(CC6)C5)cc4=O)cccc3C2=O)C(=O)N1` (stereo partly drawn) [Compound 5, ((2-(((3S,6S,10aS)-3-((6R)-6-(1-(8-(2-(2,6-dioxopiperidin-3-yl)-1-oxoisoindolin-4-yl)oct-7-yn-1-yl)-2-oxo-1,2-dihydropyridin-4-yl)-4-azaspiro[2.4]heptane-4-carbonyl)-5 oxodecahydropyrrolo[1,2-a]azocin-6-yl)carbamoyl)benzo[b]thiophen-5-yl)difluoromethyl)phosphonic acid], for which the IC50 in assay [1] lay in the range of 100 to 1000 nM; in assay [2] it was 300 to 3000 nM; in assay [3], 1000 to 10000 nM.

Take `N#CC1CN(C(=O)C2CCC3CCCCC(NC(=O)c4cc5cc(C(F)(F)P(=O)(O)O)ccc5s4)C(=O)N32)CC1c1cccc(OCCCCCC#Cc2cccc3c2CN(C2CCC(=O)NC2=O)C3=O)c1` [Compound 13, ((2-(((3S,6S,10aS)-3-((rel-3S,4R)-3-cyano-4-(3-((7-(2-(2,6-dioxopiperidin-3-yl)-1-oxoisoindolin-4-yl)hept-6-yn-1-yl)oxy)phenyl)pyrrolidine-1-carbonyl)-5-oxodecahydropyrrolo[1,2-a]azocin-6-yl)carbamoyl)benzo[b]thiophen-5-yl)difluoromethyl)phosphonic acid]: the IC50 was above 3000 nM in assay [1], below 300 nM in assay [2] and 100 to 1000 nM in assay [3].

As to `N#CC1CN(C(=O)C2CCC3CCCCC(NC(=O)c4cc5cc(C(F)(F)P(=O)(O)O)ccc5s4)C(=O)N32)CC1c1cccc(OCCOCCOc2cccc3c2CN(C2CCC(=O)NC2=O)C3=O)c1` [Compound 16, ((2-(((3S,6S,10aS)-3-((rel-3S,4R)-3-cyano-4-(3-(2-(2-((2-(2,6-dioxopiperidin-3-yl)-1-oxoisoindolin-4-yl)oxy)ethoxy)ethoxy)phenyl)pyrrolidine-1-carbonyl)-5-oxodecahydropyrrolo[1,2-a]azocin-6-yl)carbamoyl)benzo[b]thiophen-5-yl)difluoromethyl)phosphonic acid], the values for the IC50 in assay [1], in assay [2] and in assay [3] were 1000 to 3000 nM, 300 to 3000 nM and 100 to 1000 nM, respectively.

Take `O=C1CCC(c2ccc(OCCCCCn3ccc([C@@H]4CN(C(=O)[C@@H]5CC[C@@H]6CCCC[C@H](NC(=O)c7cc8cc(C(F)(F)P(=O)(O)O)ccc8s7)C(=O)N65)C5(CC5)C4)cc3=O)cc2)C(=O)N1` (stereo partly drawn) [Compound 17, ((2-(((3S,6S,10aS)-3-((6R)-6-(1-(5-(4-(2,6-dioxopiperidin-3-yl)phenoxy)pentyl)-2-oxo-1,2-dihydropyridin-4-yl)-4-azaspiro[2.4]heptane-4-carbonyl)-5-oxodecahydropyrrolo[1,2-a]azocin-6-yl)carbamoyl)benzo[b]thiophen-5-yl)difluoromethyl)phosphonic acid]: the IC50 in assay [1] was 1000 to 3000 nM; in assay [2] it was below 300 nM; in assay [3], 1000 to 10000 nM.

In the case of `O=C1CCC(c2ccc(OCCCCCOc3cc([C@@H]4CN(C(=O)[C@@H]5CC[C@@H]6CCCC[C@H](NC(=O)c7cc8cc(C(F)(F)P(=O)(O)O)ccc8s7)C(=O)N65)C5(CC5)C4)ccn3)cc2)C(=O)N1` (stereo partly drawn) [Compound 19, ((2-(((3S,6S,10aS)-3-((6R)-6-(2-((5-(4-(2,6-dioxopiperidin-3-yl)phenoxy)pentyl)oxy)pyridin-4-yl)-4-azaspiro[2.4]heptane-4-carbonyl)-5-oxodecahydropyrrolo[1,2-a]azocin-6-yl)carbamoyl)benzo[b]thiophen-5-yl)difluoromethyl)phosphonic acid], the results for the IC50 in assay [1], in assay [2] and in assay [3] were above 3000 nM, 300 to 3000 nM and 1000 to 10000 nM, respectively.
